# Reference: ChEMBL document CHEMBL1201862, “PubChem BioAssay data set” (2004)
# The source made the active and inactive calls.
# Assays:
# [1] = target: T1, Induced myeloid leukemia cell differentiation protein Mcl-1 (Homo sapiens, UniProt Q07820); assay: blockers of MCL1 binding to BIM peptide – biochemical, fluorescence polarization, BIM-BH3 peptide, 1536-well, dose response (AID 2217)
# Bcl-2-like protein 1 = Bcl-2-like protein 1 (Homo sapiens, UniProt Q07817); assay: blockers of BCLXL peptide binding – biochemical, fluorescence polarization, 1536-well, selectivity assay for MCL1 inhibitor project, dose response (AID 2218)
# Sequence of Bcl-2-like protein 1 (Q07817 whole entry): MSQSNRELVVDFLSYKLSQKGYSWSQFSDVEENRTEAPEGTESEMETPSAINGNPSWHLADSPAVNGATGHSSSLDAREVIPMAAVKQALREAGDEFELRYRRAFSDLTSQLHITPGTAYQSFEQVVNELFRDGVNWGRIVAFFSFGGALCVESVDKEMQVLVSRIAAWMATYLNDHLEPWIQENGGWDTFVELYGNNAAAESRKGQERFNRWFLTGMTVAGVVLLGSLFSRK
# Albumin = Albumin (Bos taurus, UniProt P02769); assay: Counterscreen for inhibitors of T-cell receptor (TCR)-CD3 interaction: Fluorescence-based biochemical high throughput dose response assay to identify inhibitors of T-cell receptor (TCR)-CD3 interaction using a TAMRA-labeled BSA probe.; type: functional
# Sequence of Albumin (P02769 whole entry): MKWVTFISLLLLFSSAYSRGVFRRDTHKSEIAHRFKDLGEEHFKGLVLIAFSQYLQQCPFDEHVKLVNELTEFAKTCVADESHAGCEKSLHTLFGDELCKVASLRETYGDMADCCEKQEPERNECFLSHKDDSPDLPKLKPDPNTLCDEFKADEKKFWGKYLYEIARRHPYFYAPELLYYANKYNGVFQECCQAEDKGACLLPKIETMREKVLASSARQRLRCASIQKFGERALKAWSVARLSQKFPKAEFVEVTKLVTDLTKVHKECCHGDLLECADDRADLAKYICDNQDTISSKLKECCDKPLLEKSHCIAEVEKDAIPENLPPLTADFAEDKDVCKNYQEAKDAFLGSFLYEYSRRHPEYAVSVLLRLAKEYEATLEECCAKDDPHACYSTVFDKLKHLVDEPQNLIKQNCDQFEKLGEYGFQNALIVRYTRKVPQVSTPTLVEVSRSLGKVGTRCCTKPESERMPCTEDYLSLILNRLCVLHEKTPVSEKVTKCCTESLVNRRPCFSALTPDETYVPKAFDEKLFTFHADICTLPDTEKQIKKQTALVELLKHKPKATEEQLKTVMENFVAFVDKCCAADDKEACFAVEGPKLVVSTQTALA
# [2] = target: T2, Probable nicotinate-nucleotide adenylyltransferase (Staphylococcus aureus (strain N315), UniProt P65502); type: functional, Staphylococcus aureus subsp. aureus N315;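 as to IC50 Mean: confirmatory dose-response retesting of NadD inhibitor hits first found in an ultra-high-throughput screen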
# T2 sequence (P65502 whole entry): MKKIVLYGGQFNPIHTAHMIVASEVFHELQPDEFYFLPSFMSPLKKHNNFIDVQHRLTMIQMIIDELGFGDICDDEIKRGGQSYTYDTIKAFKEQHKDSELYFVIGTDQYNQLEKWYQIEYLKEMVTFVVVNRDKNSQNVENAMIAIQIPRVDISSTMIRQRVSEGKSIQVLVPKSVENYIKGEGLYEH
# [3] = target: T2, Probable nicotinate-nucleotide adenylyltransferase; type: functional, Staphylococcus aureus subsp. aureus N315; conditions: read-out: IC50_Mean
# [4] = target: T1, Induced myeloid leukemia cell differentiation protein Mcl-1; type: functional
# [5] = target: DNA (cytosine-5)-methyltransferase 1 (Homo sapiens, UniProt P26358); assay: inhibition of DNA methylation by DNMT1 – biochemical, fluorescent molecular beacon, confirmation (AID 602386); type: functional
# NADPH oxidase 1 = NADPH oxidase 1 (Homo sapiens, UniProt Q9Y5S8); assay: Luminescence-based cell-based dose response assay to identify inhibitors of NADPH oxidase 1 (NOX1).; type: functional
# Sequence of NADPH oxidase 1 (Q9Y5S8 whole entry): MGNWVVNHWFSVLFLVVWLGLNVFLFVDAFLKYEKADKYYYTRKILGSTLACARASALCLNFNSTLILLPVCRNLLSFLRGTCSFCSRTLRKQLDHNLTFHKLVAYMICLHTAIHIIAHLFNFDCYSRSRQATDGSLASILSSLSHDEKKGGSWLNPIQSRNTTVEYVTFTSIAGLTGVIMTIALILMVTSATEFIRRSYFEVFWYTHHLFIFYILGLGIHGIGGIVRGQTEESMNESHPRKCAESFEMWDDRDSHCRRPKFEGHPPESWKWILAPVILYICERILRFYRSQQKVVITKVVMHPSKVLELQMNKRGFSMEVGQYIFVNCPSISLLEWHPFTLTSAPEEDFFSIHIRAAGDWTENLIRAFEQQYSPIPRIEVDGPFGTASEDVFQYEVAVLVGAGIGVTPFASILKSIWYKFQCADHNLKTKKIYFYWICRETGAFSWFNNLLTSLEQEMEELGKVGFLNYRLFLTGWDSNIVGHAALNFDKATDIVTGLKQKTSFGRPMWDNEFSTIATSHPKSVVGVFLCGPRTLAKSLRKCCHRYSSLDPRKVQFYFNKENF
# [6] = target: T3, Rac GTPase-activating protein 1 (Homo sapiens, UniProt Q9H0H5); assay: blockers of MgcRacGAP-driven Rac1 GTP hydrolysis – biochemical, ADP Hunter fluorescence, primary and confirmatory, confirmation (AID 624330); type: functional
# T3 sequence (Q9H0H5 whole entry): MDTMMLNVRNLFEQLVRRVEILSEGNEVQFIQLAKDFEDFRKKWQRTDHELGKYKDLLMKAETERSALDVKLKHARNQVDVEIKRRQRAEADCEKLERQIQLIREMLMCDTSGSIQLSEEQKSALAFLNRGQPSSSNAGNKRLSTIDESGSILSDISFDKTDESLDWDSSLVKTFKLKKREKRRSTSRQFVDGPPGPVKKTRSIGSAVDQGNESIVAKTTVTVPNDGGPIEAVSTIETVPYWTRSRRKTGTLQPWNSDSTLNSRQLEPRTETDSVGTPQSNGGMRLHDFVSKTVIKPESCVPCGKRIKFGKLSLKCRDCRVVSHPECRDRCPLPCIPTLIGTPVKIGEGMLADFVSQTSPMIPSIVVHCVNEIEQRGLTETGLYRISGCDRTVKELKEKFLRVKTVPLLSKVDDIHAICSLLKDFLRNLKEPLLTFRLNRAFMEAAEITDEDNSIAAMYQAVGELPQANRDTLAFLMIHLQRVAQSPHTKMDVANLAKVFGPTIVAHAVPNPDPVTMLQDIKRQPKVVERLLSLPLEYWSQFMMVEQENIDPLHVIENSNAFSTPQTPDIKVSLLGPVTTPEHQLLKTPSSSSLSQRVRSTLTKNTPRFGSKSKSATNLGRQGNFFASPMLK
# Aminopeptidase N = target: T4, Aminopeptidase N (Plasmodium falciparum FcB1/Columbia, UniProt O96935); assay: malaria alanyl aminopeptidase activity blockers – biochemical, fluorogenic H-Leu-NHMec substrate, 1536-well (AID 1445); design: species or system Plasmodium falciparum 3D7, 3D7
# T4 sequence (O96935 whole entry): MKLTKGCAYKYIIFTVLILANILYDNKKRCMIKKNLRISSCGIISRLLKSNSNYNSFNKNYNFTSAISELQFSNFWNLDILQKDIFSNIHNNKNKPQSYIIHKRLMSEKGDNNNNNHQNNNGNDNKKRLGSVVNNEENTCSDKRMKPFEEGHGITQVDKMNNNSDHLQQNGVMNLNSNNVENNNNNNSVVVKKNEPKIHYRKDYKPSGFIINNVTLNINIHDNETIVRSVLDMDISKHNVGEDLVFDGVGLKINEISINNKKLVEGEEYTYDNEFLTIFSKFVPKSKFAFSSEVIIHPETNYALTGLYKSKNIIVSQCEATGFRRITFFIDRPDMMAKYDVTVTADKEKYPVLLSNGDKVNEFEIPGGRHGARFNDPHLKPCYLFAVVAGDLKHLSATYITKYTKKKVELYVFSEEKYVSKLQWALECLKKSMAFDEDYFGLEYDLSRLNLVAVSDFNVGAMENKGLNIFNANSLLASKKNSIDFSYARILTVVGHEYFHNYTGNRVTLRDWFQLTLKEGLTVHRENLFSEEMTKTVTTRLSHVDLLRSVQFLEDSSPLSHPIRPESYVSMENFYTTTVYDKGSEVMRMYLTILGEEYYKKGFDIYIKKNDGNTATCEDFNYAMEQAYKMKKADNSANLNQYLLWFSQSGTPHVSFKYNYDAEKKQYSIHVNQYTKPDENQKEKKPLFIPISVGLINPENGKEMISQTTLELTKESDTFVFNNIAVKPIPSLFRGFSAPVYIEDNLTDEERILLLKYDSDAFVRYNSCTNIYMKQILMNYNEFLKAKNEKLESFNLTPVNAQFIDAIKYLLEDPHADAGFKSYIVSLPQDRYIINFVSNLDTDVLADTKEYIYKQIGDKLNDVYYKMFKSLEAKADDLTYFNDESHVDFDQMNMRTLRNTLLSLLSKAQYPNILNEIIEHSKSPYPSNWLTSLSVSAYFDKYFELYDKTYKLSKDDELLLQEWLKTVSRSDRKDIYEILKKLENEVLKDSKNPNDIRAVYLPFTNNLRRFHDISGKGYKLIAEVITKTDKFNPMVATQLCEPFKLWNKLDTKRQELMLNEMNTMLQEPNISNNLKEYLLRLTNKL
# Aspartyl aminopeptidase = Aspartyl aminopeptidase (Plasmodium falciparum 3D7, UniProt Q8I2J3); assay: Counterscreen for inhibitors of M1 and M17 aminopeptidases: QFRET-based biochemical high throughput dose response assay for inhibitors of the Plasmodium falciparum M18 Aspartyl Aminopeptidase (PFM18AAP). [Related PubChem assays: 1619 (Screening assay (M17LAP inhibitors).), 1445 (Screening assay (M1AAP inhibitors).)]
# Sequence of Aspartyl aminopeptidase (Q8I2J3 whole entry): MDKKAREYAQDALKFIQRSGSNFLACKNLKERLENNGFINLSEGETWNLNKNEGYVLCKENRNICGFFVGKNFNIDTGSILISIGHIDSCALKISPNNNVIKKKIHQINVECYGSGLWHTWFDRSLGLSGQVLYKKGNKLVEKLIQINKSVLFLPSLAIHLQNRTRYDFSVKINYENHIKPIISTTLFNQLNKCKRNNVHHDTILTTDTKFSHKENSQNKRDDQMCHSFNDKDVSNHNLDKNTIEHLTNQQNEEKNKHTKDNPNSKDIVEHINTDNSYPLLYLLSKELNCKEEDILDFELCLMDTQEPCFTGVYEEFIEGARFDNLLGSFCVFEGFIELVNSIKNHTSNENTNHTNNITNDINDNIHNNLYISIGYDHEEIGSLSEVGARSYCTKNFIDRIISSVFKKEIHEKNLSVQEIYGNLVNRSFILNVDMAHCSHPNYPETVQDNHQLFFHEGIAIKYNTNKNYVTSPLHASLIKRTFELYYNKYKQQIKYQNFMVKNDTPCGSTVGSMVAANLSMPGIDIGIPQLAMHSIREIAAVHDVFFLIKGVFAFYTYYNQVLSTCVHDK
# Procathepsin L = Procathepsin L (Homo sapiens, UniProt P07711); assay: CTSL1 protease inhibition – biochemical, QFRET, 1536-well, counter-screen for M1/M17 aminopeptidase inhibitor project, dose response (AID 2214)
# Sequence of Procathepsin L (P07711 whole entry): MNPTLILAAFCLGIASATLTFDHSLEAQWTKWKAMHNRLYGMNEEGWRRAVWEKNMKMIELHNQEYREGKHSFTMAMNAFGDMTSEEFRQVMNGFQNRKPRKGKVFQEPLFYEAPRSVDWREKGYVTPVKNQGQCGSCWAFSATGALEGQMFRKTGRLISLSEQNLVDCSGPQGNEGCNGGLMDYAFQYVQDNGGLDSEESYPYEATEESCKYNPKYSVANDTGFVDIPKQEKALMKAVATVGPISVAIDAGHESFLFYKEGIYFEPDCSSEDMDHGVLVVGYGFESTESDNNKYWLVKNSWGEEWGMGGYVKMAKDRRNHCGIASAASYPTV
# Estrogen receptor = Estrogen receptor (Homo sapiens, UniProt P03372);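 also: potency for inhibiting coactivator peptide recruitment to the receptor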
# Sequence of Estrogen receptor (P03372 whole entry): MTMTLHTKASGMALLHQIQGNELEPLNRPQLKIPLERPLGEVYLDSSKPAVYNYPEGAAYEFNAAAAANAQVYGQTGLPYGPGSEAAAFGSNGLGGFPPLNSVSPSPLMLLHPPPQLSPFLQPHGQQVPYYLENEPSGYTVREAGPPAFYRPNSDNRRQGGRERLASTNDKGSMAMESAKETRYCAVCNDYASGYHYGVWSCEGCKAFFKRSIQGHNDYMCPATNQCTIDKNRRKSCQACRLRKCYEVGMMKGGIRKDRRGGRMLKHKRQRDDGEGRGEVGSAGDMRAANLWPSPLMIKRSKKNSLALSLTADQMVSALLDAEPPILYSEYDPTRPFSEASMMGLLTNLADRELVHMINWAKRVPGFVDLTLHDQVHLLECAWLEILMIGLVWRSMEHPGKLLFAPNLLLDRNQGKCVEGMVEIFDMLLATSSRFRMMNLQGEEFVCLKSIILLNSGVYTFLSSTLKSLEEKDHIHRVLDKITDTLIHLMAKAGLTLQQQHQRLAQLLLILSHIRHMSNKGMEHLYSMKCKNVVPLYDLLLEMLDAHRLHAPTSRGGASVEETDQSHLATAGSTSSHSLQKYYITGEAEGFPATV
# [7] = microbe, parasite or virus in culture; type: functional; conditions: Mycobacterium tuberculosis
# [8] = M. tuberculosis growth inhibition, HTS (AID 449762); type: functional
# [9] = A High Throughput Confirmatory Assay used to Identify Novel Compounds that Inhibit Mycobacterium Tuberculosis in the absence of Glycerol.; type: functional
# Vero = assay: inhibition of WNV-induced cytopathic effect – cell-based, CPE readout (AID 1621); type: functional; conditions: Chlorocebus sabaeus
# Estrogen receptor beta [10] = target: T5, Estrogen receptor beta (Homo sapiens, UniProt Q92731);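 also: recombinant ER-beta bound to coactivator SRC1 peptide in presence of estradiol agonist; inhibitors block coactivator peptide binding and lower the FRET signal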
# T5 sequence (Q92731 whole entry): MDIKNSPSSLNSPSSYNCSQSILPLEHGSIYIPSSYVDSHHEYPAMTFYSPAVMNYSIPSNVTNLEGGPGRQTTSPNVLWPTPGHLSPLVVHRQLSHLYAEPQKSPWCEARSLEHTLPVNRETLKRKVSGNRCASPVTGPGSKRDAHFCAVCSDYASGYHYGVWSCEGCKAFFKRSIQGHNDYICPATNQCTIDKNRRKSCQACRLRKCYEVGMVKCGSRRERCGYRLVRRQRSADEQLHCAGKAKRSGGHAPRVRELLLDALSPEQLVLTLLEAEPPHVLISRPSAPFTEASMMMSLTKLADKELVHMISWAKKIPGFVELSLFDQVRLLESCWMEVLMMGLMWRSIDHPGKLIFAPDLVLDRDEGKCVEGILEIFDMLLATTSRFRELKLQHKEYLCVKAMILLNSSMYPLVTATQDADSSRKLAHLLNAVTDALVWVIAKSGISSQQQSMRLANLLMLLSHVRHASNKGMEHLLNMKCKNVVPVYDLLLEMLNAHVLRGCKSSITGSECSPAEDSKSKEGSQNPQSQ
# Estrogen receptor beta [11] = target: T5, Estrogen receptor beta; assay: blockers of SRC-3 recruitment to ERβ – biochemical, ELISA, streptavidin-HRP readout, orthogonal assay, confirmation (AID 1060)
# [12] = target: Low molecular weight phosphotyrosine protein phosphatase (Homo sapiens, UniProt P24666); type: functional; conditions: read-out: IC50_Mean;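 also: Dose-response confirmation assay measuring inhibition of LMPTP enzyme activity by fluorescence intensity read-out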
# Sequence of Low molecular weight phosphotyrosine protein phosphatase (P24666 whole entry): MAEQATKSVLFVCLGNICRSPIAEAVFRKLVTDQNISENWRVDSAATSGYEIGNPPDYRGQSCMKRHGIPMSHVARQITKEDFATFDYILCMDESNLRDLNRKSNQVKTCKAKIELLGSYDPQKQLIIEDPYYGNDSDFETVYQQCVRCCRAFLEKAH
# T1 sequence (Q07820 whole entry): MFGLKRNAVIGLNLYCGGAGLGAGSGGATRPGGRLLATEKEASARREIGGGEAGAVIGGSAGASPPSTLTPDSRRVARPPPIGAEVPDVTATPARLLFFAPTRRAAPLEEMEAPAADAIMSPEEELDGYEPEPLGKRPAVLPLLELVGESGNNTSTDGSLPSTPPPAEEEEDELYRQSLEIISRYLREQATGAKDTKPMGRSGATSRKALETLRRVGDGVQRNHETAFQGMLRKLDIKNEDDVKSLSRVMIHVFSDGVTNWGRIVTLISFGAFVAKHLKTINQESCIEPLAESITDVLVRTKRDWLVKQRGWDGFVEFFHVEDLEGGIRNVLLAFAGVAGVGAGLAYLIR
compound,measurement,setting,value
O=C(Nc1cccc(S(=O)(=O)NC2=NCCC2)c1)c1cc(-c2ccco2)nc2ccccc12,IC50,[1],4.26 µM (active)
same,IC50,Bcl-2-like protein 1,> 109 µM (not active)
same,IC50,Albumin,> 94.1 µM (inactive)
same,IC50,[2],9.01 µM (active)
same,IC50,[3],22.7 µM (active)
same,IC50,[4],1.09 µM (active)
same,IC50,[5],3.71 µM (active)
CCN(CC)c1ccc(NC(=O)Nc2ccccc2)cc1,IC50,NADPH oxidase 1,176 nM (active)
same,IC50,[6],45 µM (active)
O=C(NCc1ccc2c(c1)OCO2)C1CCN(S(=O)(=O)c2ccc(Br)s2)CC1,IC50,Aminopeptidase N,2.11 µM (active)
same,IC50,Aspartyl aminopeptidase,> 73.5 µM (not active)
same,IC50,Procathepsin L,> 59.6 µM (not active)
CN(CC(=O)NC(=O)NCc1ccco1)Cc1nc(O)c2ccccc2n1,IC50,Estrogen receptor,13.7 µM (active)
COc1ccc(C2c3[nH]c4ccccc4c3CCN2C(=O)c2cc3ncccn3n2)c(F)c1 (stereo unspecified),CC50,[7],> 40 µM (active)
same,IC50,[8],> 100 µM (active)
same,IC50,[9],> 100 µM (active)
same,IC50,Vero,34.6 µM (active)
N=c1c(C(=O)NCc2ccc3c(c2)OCO3)cc2c(=O)n3ccccc3nc2n1Cc1cccnc1,IC50,Estrogen receptor beta [10],5.48 µM (active)
same,IC50,Estrogen receptor beta [11],> 50 µM (not active)
same,IC50,[4],4.3 µM (active)
same,IC50,[12],17.1 µM (active)
